Results published in US11912693B2, “Compounds for modulating S1P1 activity and methods of using the same” (TREVENA, INC., priority 2017, dated 2024).

Experiments:
[1] = target: T1, human sphingosine-1-phosphate receptor 1 (S1P1) (Homo sapiens (Human), UniProt P21453); experiment: Inhibition of cAMP production (HTRF cAMP HiRange), S1P1 CHO-K1 cells; type: cell-based; conditions: for hS1P1 cAMP pEC50 / EC50: inhibition of cAMP production, S1P1 CHO-K1 cells; for Emax: CHO-K1, efficacy (SPAN) normalized to fingolimod, read-out: hS1P1 cAMP SPAN; for EC50: read-out: hS1P1 cAMP pEC50 (converted)
In short: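 CHO-K1 cells stably co-expressing human S1P1 (C-terminal Prolink tag) and EA-β-arrestin2 were grown in AssayComplete Media 6 at 37° C. and 5% CO2, plated, and incubated overnight. Agonist-driven inhibition of intracellular cAMP was read by TR-FRET with the HTRF cAMP HiRange kit on a PheraStar reader. Potency is pEC50, and efficacy (SPAN) is normalized to fingolimod.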
Target sequence in this assay (P21453 whole entry, looked up): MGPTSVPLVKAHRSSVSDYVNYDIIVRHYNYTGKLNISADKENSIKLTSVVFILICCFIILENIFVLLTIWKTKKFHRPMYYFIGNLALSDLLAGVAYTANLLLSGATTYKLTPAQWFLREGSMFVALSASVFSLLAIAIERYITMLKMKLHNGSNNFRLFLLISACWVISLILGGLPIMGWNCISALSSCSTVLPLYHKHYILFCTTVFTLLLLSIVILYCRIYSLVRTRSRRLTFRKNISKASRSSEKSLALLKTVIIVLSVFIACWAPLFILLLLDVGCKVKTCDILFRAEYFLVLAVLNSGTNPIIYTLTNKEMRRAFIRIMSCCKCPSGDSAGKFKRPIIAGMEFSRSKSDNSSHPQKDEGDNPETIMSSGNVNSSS

[2] = target: T1, human sphingosine-1-phosphate receptor 1 (S1P1); experiment: β-Arrestin2 recruitment assay (PathHunter), S1P1 CHO-K1 cells; type: cell-based; conditions: for hS1P1 B-arrestin2 pEC50 / EC50: β-arrestin2 recruitment, S1P1 CHO-K1 cells; for Emax: CHO-K1, efficacy (SPAN) normalized to fingolimod, read-out: hS1P1 B-arrestin2 SPAN; for EC50: read-out: hS1P1 B-arrestin2 pEC50 (converted)
In short: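 Enzyme-fragment complementation read-out: agonist-driven β-arrestin2 binding to ProLink-tagged human S1P1 in stable CHO-K1 cells restores β-galactosidase, measured 1 h at room temperature after a 60 min 37° C. compound incubation. Potency as pEC50, efficacy relative to fingolimod (SPAN).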
Target sequence in this assay (P21453 whole entry, looked up): as above
Target sequence in this assay (P32121 whole entry partner, looked up): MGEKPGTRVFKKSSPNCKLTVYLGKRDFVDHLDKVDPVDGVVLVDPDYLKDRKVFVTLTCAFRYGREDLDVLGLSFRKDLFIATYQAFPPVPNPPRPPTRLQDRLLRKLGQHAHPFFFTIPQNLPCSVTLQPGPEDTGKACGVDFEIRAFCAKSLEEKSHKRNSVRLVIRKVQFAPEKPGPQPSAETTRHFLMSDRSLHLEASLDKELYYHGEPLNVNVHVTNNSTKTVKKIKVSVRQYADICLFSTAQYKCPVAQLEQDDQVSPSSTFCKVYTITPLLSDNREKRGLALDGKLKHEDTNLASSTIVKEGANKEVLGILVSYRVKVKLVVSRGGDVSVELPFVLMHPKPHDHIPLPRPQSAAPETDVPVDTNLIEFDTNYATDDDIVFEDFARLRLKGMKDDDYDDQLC

Structure (SMILES)	hS1P1 cAMP pEC50 [1]	hS1P1 B-arrestin2 pEC50 [2]	Emax [1] [%]	Emax [2] [%]	EC50 [1] [µM]	EC50 [2] [µM]
CSc1ccccc1-c1nc(-c2ccc3c(c2)nnn3C2CCCC2)no1 [Compound 16, 3-(1-cyclopentyl-1H-benzo[d][1,2,3]triazol-5-yl)-5-(2-(methylthio)phenyl)-1,2,4-oxadiazole]	<6.5	>5				
CCC1(CC)CC(=O)c2cc(-c3nc(-c4ccc5cnccc5c4)no3)ccc2O1 [Compound 522, 2,2-diethyl-6-(3-(isoquinolin-6-yl)-1,2,4-oxadiazol-5-yl)chroman-4-one]	<6.5	<5				
CC(C)n1nnc2cc(-c3noc(C4CCC(F)(F)CC4)n3)ccc21 [Compound 125, 5-[5-(4,4-difluorocyclohexyl)-1,2,4-oxadiazol-3-yl]-1-(propan-2-yl)-1H-1,2,3-benzotriazole]	<6.5	<5	< 75	< 75		
COc1ccccc1-c1nnc(-c2ccc3c(c2)nnn3C(C)C)s1 [Compound 144, 5-[5-(2-methoxyphenyl)-1,3,4-thiadiazol-2-yl]-1-(propan-2-yl)-1H-1,2,3-benzotriazole]	<6.5	>5				
CC(C)n1ccc2cc(-c3nc(-c4ccccc4O)no3)ccc21 [Compound 323, 2-(5-(1-isopropyl-1H-indol-5-yl)-1,2,4-oxadiazol-3-yl)phenol]	<6.5	<5	> 75	> 75		
CC(C)n1nnc2cc(-c3nc(-c4cccnc4)no3)ccc21 [Compound 165, 1-(propan-2-yl)-5-[3-(pyridin-3-yl)-1,2,4-oxadiazol-5-yl]-1H-1,2,3-benzotriazole]	<6.5	<5				
CC(C)n1nnc2cc(-c3nc4c(o3)COc3ccccc3-4)ccc21 [Compound 462, 5-{4H-chromeno[4,3-d][1,3]oxazol-2-yl}-1-(propan-2-yl)-1H-1,2,3-benzotriazole]	>6.5	<5	> 75	> 75		
CC(C)Nc1ccc(-c2ccc(-c3ccc4c(c3)nnn4C(C)C)cc2)cc1C#N [Compound 507, 4′-(1-isopropyl-1H-benzo[d][1,2,3]triazol-5-yl)-4-(isopropylamino)-[1,1′-biphenyl]-3-carbonitrile]	>6.5	<5	< 75	< 75		
c1ccc(Oc2ccc(-c3noc(-c4ccc5c(c4)nnn5C4CC4)n3)cc2)cc1 [Compound 285, 1-cyclopropyl-5-[3-(4-phenoxyphenyl)-1,2,4-oxadiazol-5-yl]-1H-1,2,3-benzotriazole]	<6.5	<5	< 75	< 75		
Cc1cc(-c2nc(-c3ccc4c(c3)nnn4C(C)C)no2)ccn1 [Compound 86, 3-(1-isopropyl-1H-benzo[d][1,2,3]triazol-5-yl)-5-(2-methylpyridin-4-yl)-1,2,4-oxadiazole]	<6.5	<5	< 75	> 75		
c1ccc(Cc2noc(-c3ccc4c(c3)nnn4C3CCCC3)n2)cc1 [Compound 92, 5-(3-benzyl-1,2,4-oxadiazol-5-yl)-1-cyclopentyl-1H-1,2,3-benzotriazole]			< 75	< 75	> 0.316	> 10
Cc1ccccc1-c1nc(-c2ccc3c(c2)nnn3CC(C)(C)O)no1 [Compound 593, 2-methyl-1-(5-(5-(o-tolyl)-1,2,4-oxadiazol-3-yl)-1H-benzo[d][1,2,3]triazol-1-yl)propan-2-ol]			> 75	> 75	< 0.316	< 10
CCC1(CC)CC(=O)c2cc(-c3nsc(-c4ccc5c(c4)nnn5C(C)C)n3)ccc2O1 [Compound 143, 2,2-diethyl-6-(5-(1-isopropyl-1H-benzo[d][1,2,3]triazol-5-yl)-1,2,4-thiadiazol-3-yl)chroman-4-one]	<6.5	<5	< 75	< 75		
CC(F)(F)CNc1ccc(-c2nc(-c3ccc4c(c3)CCC(=O)N4)no2)cc1C#N [Compound 347, 2-[(2,2-difluoropropyl)amino]-5-[3-(2-oxo-1,2,3,4-tetrahydroquinolin-6-yl)-1,2,4-oxadiazol-5-yl]benzonitrile]	>6.5	>5	> 75	> 75		
CC(C)n1ccc2cc(-c3nc(-c4ccccc4F)ns3)ccc21 [Compound 374, 5-[3-(2-fluorophenyl)-1,2,4-thiadiazol-5-yl]-1-(propan-2-yl)-1H-indole]	<6.5	<5				
Cc1cnc(-c2noc(-c3ccc4c(c3)nnn4C3CCOCC3)n2)cn1 [Compound 6, 5-[3-(5-methylpyrazin-2-yl)-1,2,4-oxadiazol-5-yl]-1-(oxan-4-yl)-1H-1,2,3-benzotriazole]	<6.5	<5	< 75	< 75		
COC(=O)NS(=O)(=O)n1c(=O)oc2cc(-c3nnc(-c4ccccc4OC)o3)ccc21 [Compound 342, methyl N-({6-[5-(2-methoxyphenyl)-1,3,4-oxadiazol-2-yl]-2-oxo-2,3-dihydro-1,3-benzoxazol-3-yl}sulfonyl)carbamate]	<6.5	<5	< 75	< 75		
COc1ccccc1-c1nc(-c2ccc3c(c2)nnn3C2CCCC2)no1 [Compound 120, 3-(1-cyclopentyl-1H-benzo[d][1,2,3]triazol-5-yl)-5-(2-methoxyphenyl)-1,2,4-oxadiazole]	>6.5	>5	> 75	> 75		
CCC1(CC)CC(=O)c2cc(-c3nc(-c4ccc(NC(C)=O)cc4)no3)ccc2O1 [Compound 209, N-(4-(5-(2,2-diethyl-4-oxochroman-6-yl)-1,2,4-oxadiazol-3-yl)phenyl)acetamide]	>6.5	>5	> 75	> 75		
Cn1cnc2cc(-c3nnc(-c4ccc(NCC(F)F)c(C#N)c4)o3)ccc21 [Compound 573, 2-[(2,2-difluoroethyl)amino]-5-[5-(1-methyl-1H-1,3-benzodiazol-5-yl)-1,3,4-oxadiazol-2-yl]benzonitrile]	<6.5	<5				
CC(C)(O)Cn1nnc2cc(-c3nc(-c4ccc5nonc5c4)no3)ccc21 [Compound 590, 1-{5-[3-(2,1,3-benzoxadiazol-5-yl)-1,2,4-oxadiazol-5-yl]-1H-1,2,3-benzotriazol-1-yl}-2-methylpropan-2-ol]	<6.5	<5				
CC(C)Nc1ccc(-c2nnc(-c3ccc4c(c3)ncn4C)o2)cc1C#N [Compound 572, 5-[5-(1-methyl-1H-1,3-benzodiazol-5-yl)-1,3,4-oxadiazol-2-yl]-2-[(propan-2-yl)amino]benzonitrile]	<6.5	<5				
CC(C)Cn1nnc2cc(-c3nc(-c4ccccc4Cl)no3)ccc21 [Compound 289, 5-[3-(2-chlorophenyl)-1,2,4-oxadiazol-5-yl]-1-(2-methylpropyl)-1H-1,2,3-benzotriazole]	<6.5	<5				
CC1(C)CCC2(CC1)CC(=O)c1cc(-c3nc(-c4cccnc4)no3)ccc1O2 [Compound 58, 4′,4′-dimethyl-6-[3-(pyridin-3-yl)-1,2,4-oxadiazol-5-yl]-3,4-dihydrospiro[1-benzopyran-2,1′-cyclohexane]-4-one]	<6.5	<5	< 75	< 75		
Cc1cn(C)nc1-c1noc(-c2ccc3c(c2)nnn3CC(C)(C)O)n1 [Compound 518, 1-{5-[3-(1,4-dimethyl-1H-pyrazol-3-yl)-1,2,4-oxadiazol-5-yl]-1H-1,2,3-benzotriazol-1-yl}-2-methylpropan-2-ol]	<6.5	<5				
N#Cc1cc(-c2nc(-c3ccc4c(c3)CCC(=O)N4)no2)ccc1NCC(F)F [Compound 344, 2-[(2,2-difluoroethyl)amino]-5-[3-(2-oxo-1,2,3,4-tetrahydroquinolin-6-yl)-1,2,4-oxadiazol-5-yl]benzonitrile]	>6.5	>5	> 75	> 75		
CCC1(CC)CC(=O)c2cc(-c3nc(-c4cccs4)no3)ccc2N1 [Compound 591, 2,2-diethyl-6-(3-(thiophen-2-yl)-1,2,4-oxadiazol-5-yl)-2,3-dihydroquinolin-4(1H)-one]	>6.5	>5				
Cc1ccccc1-c1noc(-c2ccc3nnn(C(C)C)c3c2)n1 [Compound 308, 6-[3-(2-methylphenyl)-1,2,4-oxadiazol-5-yl]-1-(propan-2-yl)-1H-1,2,3-benzotriazole]	<6.5	<5	< 75	< 75		
